Measured values: patent publication US10183908B2, “Compositions for the treatment of kidney and/or liver disease” (VECTUS BIOSYSTEMS LIMITED, priority 2015, dated 2019)

Tests used:
[1] = tested on: bovine aortic endothelial cells; test: xCELLigence cell impedance in bovine aortic endothelial cells; type: cell-based; conditions: test compounds at 62.5, 125 or 250 μM; FIG. 9; negative response = indirect vasodilator
Experimental: (§1) Briefly, 50 μl of cell culture medium (DMEM low glucose supplemented with 10% fetal bovine serum at 37° C.) was added to each well of an E-Plate 96 (Roche), and the background impedance in each well was measured. 50 μl of A-10 cell suspension (10,000 cells/well) was then added to the appropriate wells of the E-Plate 96. Cell index was monitored for each well of the E-Plate 96 in RTCA SP Station within the cell culture incubator. After overnight incubation for 16-20 hours at 5% CO2 and 95% humidity, 100 μl of test compound solution (test compounds were prepared in DMSO and diluted with cell culture medium to a final DMSO concentration of 0.25%) was added to the appropriate wells of the E-Plate 96 and cell index values were measured immediately following compound treatment every 20 seconds for 3 hours. Cell index value is baseline-corrected by subtracting the cell index of vehicle-treated cells and normalized by dividing by the cell index at the time point immediately before compound addition. Baseline normalized cell index as a function of time is plotted using Roche RTCA software.
The xCELLigence SP system was also used to measure changes in cellular impedance following the treatment of bovine aortic endothelial cells (European Collection of Cell Cultures) with test compound. The method employed is the same for the A10 embryonic vascular smooth muscle cells described above but with the cell culture medium supplemented with 15% fetal bovine serum instead of 10%.
Compounds may interact with vascular endothelial cells causing the release of substances such as nitric oxide and endothelium-derived hyperpolarising factor, which in turn act on the vascular smooth muscle cells causing vasodilatation and lowering blood pressure. Such compounds are termed indirect vasodilators.

[2] = tested on: Rat (NRK-52E) renal proximal tubule cells; test: Rescue of renal proximal tubule cells from cisplatin cytotoxicity (WST-8/CCK-8); type: cell-based; conditions: test compound 30 μM; cisplatin 5 μg/ml; 24 or 48 hours; FIG. 10
Experimental: Rat (NRK-52E) renal proximal tubule cells grown in DMEM+10% FBS+1% NEAA+2 mM glutamine were placed in 96 well plates at 10,000 cells/well and incubated at 37° C. with 5% CO2 overnight. Test compounds at a concentration of 30 μM were incubated with human or rat renal proximal tubule cells for 2 hours at 37° C. and 5% CO2. Cis-diamminedichloroplatinum[…] (cisplatin) was then added at […] and each cell population was then incubated for 24 or 48 hours at 37° C. with 5% CO2. Test compounds were maintained at their original concentrations. To assay the cytotoxic effects of cisplatin on the rat renal proximal tubule cells a highly water-soluble tetrazolium salt, WST-8, which is reduced by dehydrogenases in cells to produce formazan, a water-soluble, yellow-coloured indicator dye was used following the manufacturer's instructions (specifically the Cell Count Kit-8 (CCK-8) assay from Sigma). Plate absorbance of the WST-8 (CCK-8) reagent was then measured at 450 nm using a Thermo Scientific Multiskan EX plate reader.

[3] = tested on: A10 embryonic vascular smooth muscle cells; test: xCELLigence cell impedance in A10 vascular smooth muscle cells; type: cell-based; conditions: test compounds at 62.5, 125 or 250 μM; FIG. 8; negative response = direct vasodilator
Source text: The xCELLigence SP system (Roche) was used to measure changes in cellular impedance (cell index) following the treatment of A10 embryonic vascular smooth muscle cells (ATCC, CRL-1476) with test compound. In this in vitro cell based experimental system a negative impedance profile correlates with blood pressure reduction in rats—a decrease in impedance is associated with vasodilatation and an increase in impedance is associated with vasoconstriction (Stallaert W, Dorn J F, van der Westhuizen E, Audet M & Bouvier M. Impedance responses reveal β-adrenergic signaling […] and allow classification of ligands with distinct signalling profiles PLoS ONE 2012; 7(1):e29420, doi:10.1371/journal.pone.0029420).
as §1
Compounds may achieve reductions in blood pressure by interaction with vascular smooth muscle cells causing these cells to relax resulting in vasodilatation and a reduction in blood pressure. These are termed direct vasodilators.

[4] = tested on: SHR; test: Kidney fibrosis in SHR (Masson's trichrome); type: in vivo, rat; conditions: SHR on 2.2% salt diet; 500 pmol/kg/min; 4 weeks; FIG. 12, *p<0.05
Source text: (§2) Fourteen week old SHR (on a 2.2% salt diet; Glen Forrest Stockfeeders) were randomly assigned to zero time control (14 week old rats), test compound treatment drinking solution (500 pmol/kg/min in deionised distilled water) or control drinking solution (5% ethanol in deionised distilled water). The rats assigned to zero time control group (14 week old rats) were anaesthetised and had their kidneys and liver harvested while rats assigned to control and test compound treatment were weighed twice weekly and had their drinking solution intake monitored to allow adjustment of the test compound concentration in the drinking solution to maintain a constant dose over the 4-week study period. Blood pressure was measured twice weekly by tail cuff plethysmography (PowerLab, ADInstruments, Castle Hill, NSW, Australia). After 4 weeks rats were anaesthetised (18 week old rats), and their kidneys and liver harvested. To quantitate tissue fibrosis and/or fat content, tissue slices ≤3 mm thick were fixed in 10% buffered formalin for 24 hours, processed and embedded in paraffin. Three micron transverse sections were stained using Masson's trichrome stain. A minimum of 20 random fields at magnification ×20 from transverse sections (5 at each of 2 levels) were digitized and the degree of fibrosis and fat content determined as a percent of field area of each digitized image using Image-Pro Plus V.7 (Media Cybernetics, Bethesda, Md., USA) then averaged to determine the level of fibrosis and/or fat content for each rat.

[5] = tested on: SHR; test: Hepatic fibrosis in SHR (Masson's trichrome); type: in vivo, rat; conditions: for Fibrosis in the liver compared to 18 week controls: SHR, 500 pmol/kg/min, 4 weeks, FIG. 13, *p<0.05, **p<0.025, ***p<0.01
Source text: as §2

Row | Structure (SMILES) | impedance response for bovine aortic endothelial cells [1] | Cisplatin induced cell death in renal proximal tubular cells [2] | impedance response for A10 vascular smooth muscle cells [3] | Fibrosis in the kidney compared to 18 week controls [4] | Tissue architecture of portal tracts in Masson's tri-chrome stained liver sections ([5]; SHR treated rats vs control, FIG. 14) | Fibrosis in the liver compared to 18 week controls [5]
1 | NC(=O)CCc1cc(-c2cccc(F)c2)ccc1-c1cccc(O)c1 [Compound P1, 3-(3″-Fluoro-3-hydroxy-1,1′:4′,1′-terphenyl-2′-yl)propanamide] | Negative impedance responses | decreased | – | – | – | –
2 | NC(=O)CCc1cc(-c2ccc(F)cc2)ccc1-c1cccc(O)c1 [Compound P3, 3-(4″-Fluoro-3-hydroxy-1,1′:4′,1″-terphenyl-2′-yl)propanamide] | Negative impedance responses | decreased | Negative impedance responses | – | – | –
3 | NC(=O)CCc1cc(-c2ccccn2)ccc1-c1cccc(O)c1 [Compound P4, 3-[3′-Hydroxy-4-(pyridin-2-yl)biphenyl-2-yl]propanamide] | Negative impedance responses | decreased | – | – | – | –
4 | NC(=O)CCc1cc(-c2ccncc2)ccc1-c1cccc(O)c1 [Compound P6, 3-[3′-Hydroxy-4-(pyridin-4-yl)biphenyl-2-yl]propanamide] | Negative impedance responses | decreased | – | – | – | –
5 | NC(=O)CCc1cc(-n2cccc2)ccc1-c1cccc(O)c1 [Compound P9, 3-(3′-Hydroxy-4-(1H-pyrrol-1-yl)-[1,1′-biphenyl]-2-yl)propanamide] | Negative impedance responses | decreased | Negative impedance responses | decreased | normal tissue architecture has been restored | decreased
6 | NC(=O)CCc1cc(-c2ccoc2)ccc1-c1cccc(O)c1 [Compound P11, 3-(4-(Furan-3-yl)-3′-hydroxy-[1,1′-biphenyl]-2-yl)propanamide] | Negative impedance responses | decreased | Negative impedance responses | decreased | – | decreased
7 | NC(=O)CCc1cc(-c2cc(F)cc(F)c2)ccc1-c1cccc(O)c1 [Compound P33, 3-(3″,5″-Difluoro-3-hydroxy-1,1′:4′,1″-terphenyl-2′-yl)propanamide] | Negative impedance responses | decreased | Negative impedance responses | – | – | –
8 | Cn1nccc1-c1ccc(-c2cccc(O)c2)c(CCC(N)=O)c1 [Compound P38, 3-[3′-Hydroxy-4-(1-methyl-1H-pyrazol-5-yl)biphenyl-2-yl]propanamide] | Negative impedance responses | decreased | – | – | – | –
9 | Cc1noc(C)c1-c1ccc(-c2cccc(O)c2)c(CCC(N)=O)c1 [Compound P41, 3-(4-(3,5-Dimethylisoxazol-4-yl)-3′-hydroxy-[1,1′-biphenyl]-2-yl)propanamide] | Negative impedance responses | decreased | – | – | – | –
10 | Cc1n[nH]c(C)c1-c1ccc(-c2cccc(O)c2)c(CCC(N)=O)c1 [Compound P42, 3-[4-(3,5-Dimethyl-1H-pyrazol-4-yl)-3′-hydroxybiphenyl-2-yl]propanamide] | Negative impedance responses | decreased | – | – | – | –
11 | Cc1ccsc1-c1ccc(-c2cccc(O)c2)c(CCC(N)=O)c1 [Compound P43, 3-[3′-Hydroxy-4-(3-methylthiophen-2-yl)biphenyl-2-yl]propanamide] | Negative impedance responses | decreased | – | – | – | –
12 | Cc1cscc1-c1ccc(-c2cccc(O)c2)c(CCC(N)=O)c1 [Compound P44, 3-[3′-Hydroxy-4-(4-methylthiophen-3-yl)biphenyl-2-yl]propanamide] | Negative impedance responses | decreased | – | – | – | –
13 | Cc1n[nH]cc1-c1ccc(-c2cccc(O)c2)c(CCC(N)=O)c1 [Compound P45, 3-[3′-Hydroxy-4-(3-methyl-1H-pyrazol-4-yl)biphenyl-2-yl]propanamide] | – | decreased | – | – | – | –
14 | Cc1cccc(-c2ccc(-c3cccc(O)c3)c(CCC(N)=O)c2)c1 [Compound P46, 3-(3-Hydroxy-3″-methyl-1,1′:4′,1″-terphenyl-2′-yl)propanamide] | Negative impedance responses | decreased | Negative impedance responses | – | – | –
15 | NC(=O)CCc1cc(-c2cccc(C(=O)O)c2)ccc1-c1cccc(O)c1 [Compound P47, 3′-(3-Amino-3-oxopropyl)-3″-hydroxy-1,1′:4′,1″-terphenyl-3-carboxylic Acid] | Negative impedance responses | – | – | – | – | –
16 | NC(=O)CCc1cc(-c2cccc(O)c2)ccc1-c1cccc(O)c1 [Compound P48, 3-(3,3″-Dihydroxy-1,1′:4′,1″-terphenyl-2′-yl)propanamide] | Negative impedance responses | – | – | – | – | –
17 | NC(=O)CCc1cc(-c2ccc(N)cc2)ccc1-c1cccc(O)c1 [Compound P49, 3-(4″-Amino-3-hydroxy-1,1′:4′,1″-terphenyl-2′-yl)propanamide] | Negative impedance responses | decreased | – | – | – | –
18 | COc1cccc(-c2ccc(-c3cccc(O)c3)c(CCC(N)=O)c2)c1 [Compound P50, 3-(3-Hydroxy-3″-methoxy-1,1′:4′,1″-terphenyl-2′-yl)propanamide] | Negative impedance responses | decreased | – | – | – | –
